Assay results: patent publication US6914045B2, “Glycopeptide antibiotics” (Wyeth Holdings Corporation, priority 2001, dated 2005)

What was measured:
Assay in all cases: in vitro antibacterial evaluation, MIC by broth dilution
Assay type in all cases: cell-based
[1] = system: Enterococcus sp.; settings: broth dilution, 18 hours at 35° C.
Outline: (§1)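 Test organisms, which included recent clinical isolates resistant to methicillin, penicillin and/or vancomycin, were inoculated at 5×10^5 CFU/mL into Muller-Hinton II […] containing antibiotic at 64-0.06 μg/mL. Minimum inhibitory concentrations were then read as the lowest level inhibiting growth.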

[2] = system: Escherichia coli; settings: 18 hours at 35° C.
Outline: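 Following National Committee for Clinical Laboratory Standards recommendations (M7-A2), susceptibility was measured by dilution in Muller-Hinton II […]. Bacteria were seeded at 5×10^5 CFU/mL against compound concentrations from 64 down to 0.06 μg/mL.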

[3] = system: Staphylococcus sp.; settings: broth dilution, 18 hours at 35° C.
Outline: as §1

[4] = system: Streptococcus sp.; settings: broth dilution, 18 hours at 35° C.
Outline: as §1

CC(c1ccc(F)cc1)C1NC(=O)CNC(=O)C(CO)NC(=O)C(C(O)C2CNC(=N)N2C2OC(CO)C(O)C(O)C2O)NC(=O)C(C(O)C2CNC(=N)N2)NC(=O)C(Cc2ccc(OC3OC(CO)C(OC4OC(CO)C(O)C(O)C4O)C(O)C3O)cc2)NC1=O (stereo not drawn) [Example 261a, Cyclo[glycyl-4-fluoro-β-methylphenylalanyl-O-(4-O-hexopyranosylhexopyranosyl)tyrosyl-3-(2-iminoimidazolidin-4-yl)seryl-3-(3-hexopyranosyl-2-iminoimidazolidin-4-yl)serylseryl]]
>64 µg/mL: MIC Enterococcus avium (GC 4558) ([1]; Enterococcus avium (GC 4558)) | MIC Enterococcus faecalis (ATCC 29212) ([1]; Enterococcus faecalis (ATCC 29212)) | MIC Enterococcus faecalis (GC 4553) ([1]; Enterococcus faecalis (GC 4553)) | MIC Enterococcus faecalis (GC 4554) ([1]; Enterococcus faecalis (GC 4554)) | MIC Enterococcus faecium (GC 2243) ([1]; Enterococcus faecium (GC 2243)) | MIC Enterococcus faecium (GC 4556) ([1]; Enterococcus faecium (GC 4556)) | MIC Enterococcus faecium (GC 4557) ([1]; Enterococcus faecium (GC 4557)) | MIC Enterococcus faecalis (GC 2242) [1] | MIC Enterococcus faecalis (GC 4552) [1] | MIC Enterococcus faecalis (ATCC 29212) ([1]; strain ATCC 29212) | MIC Enterococcus faecalis (GC 2242) ([1]; strain GC 2242) | MIC Enterococcus faecium (GC 2243) ([1]; strain GC 2243) | MIC Enterococcus faecalis (GC 4552) ([1]; strain GC 4552) | MIC Enterococcus faecalis (GC 4553) ([1]; strain GC 4553) | MIC Enterococcus faecalis (GC 4554) ([1]; strain GC 4554) | MIC Enterococcus faecium (GC 4556) ([1]; strain GC 4556) | MIC Enterococcus faecium (GC 4557) ([1]; strain GC 4557) | MIC Enterococcus avium (GC 4558) ([1]; strain GC 4558) | MIC Escherichia coli (ATCC 25922) ([2]; Escherichia coli (ATCC 25922)) | MIC Escherichia coli (GC 4559) ([2]; Escherichia coli (GC 4559)) | MIC Escherichia coli (GC 4560) ([2]; Escherichia coli (GC 4560)) | MIC Coagulase Negative Staphylococcus (GC 4547) [3] | MIC Coagulase Negative Staphylococcus (GC 4548) [3] | MIC Coagulase Negative Staphylococcus (GC 4549) [3] | MIC Coagulase Negative Staphylococcus (GC 4551) [3] | MIC Staphylococcus aureus (ATCC 29213) [3] | MIC Staphylococcus aureus (GC 1131) [3] | MIC Staphylococcus aureus (GC 4541) [3] | MIC Staphylococcus aureus (GC 4542) [3] | MIC Staphylococcus aureus (GC 4544) [3] | MIC Staphylococcus aureus (GC 4545) [3] | MIC Staphylococcus aureus-SMITH (GC 4543) [3] | MIC Staphylococcus haemolyticus (GC 4546) [3] | MIC Staphylococcus aureus (ATCC 29213) ([3]; strain ATCC 29213) | MIC Staphylococcus aureus (GC 1131) ([3]; strain GC 1131) | MIC Staphylococcus aureus (GC 4541) ([3]; strain GC 4541) | MIC Staphylococcus aureus (GC 4542) ([3]; strain GC 4542) | MIC Staphylococcus aureus (GC 4544) ([3]; strain GC 4544) | MIC Staphylococcus aureus (GC 4545) ([3]; strain GC 4545) | MIC Streptococcus agalactiae (GC 4564) [4] | MIC Streptococcus pyogenes (ID-3187) [4] | MIC Streptococcus agalactiae (GC 4564) ([4]; strain GC 4564) | MIC Streptococcus pyogenes (ID-3187) ([4]; strain ID-3187)
